The data set in a line: Human HepG2 cell viability assay in 384 well format. It counts as toxicity, cell-based. Also noted: dose 125 nL, time 70.5 hour; cytotoxicity at 70.5 h: concentration not given beside the values. As to conditions: HepG2 cells, read-out: Inhibition.

This is an account of results in ChEMBL document CHEMBL3507680, “University of Dundee, Gates Library screen for HepG2 cell viability”.

Each structure is given as a SMILES string.

On to `Cc1ccc(-c2nc(CN3CCOC(CN(C)C)C3)co2)cc1` (centres undefined), for which the cytotoxicity at 70.5 h is -5.51%. Regarding `O=C(CN1CCOC(Cn2cccn2)C1)NCc1ccccn1` (centres undefined), the cytotoxicity at 70.5 h is -9.46%. `CC(Oc1ccccc1)C(=O)N1CCCN(Cc2nccn2C)CC1` (centres undefined): the cytotoxicity at 70.5 h was -10.4%.

Regarding `Cc1nccn1C1CCCN(C(=O)c2cc(Cl)c3c(c2)OCO3)C1` (centres undefined), the cytotoxicity at 70.5 h was -5.54%. Turning to `CSC(C)C(=O)N1CCCN(Cc2nccn2C)CC1` (centres undefined), the cytotoxicity at 70.5 h was -1.04%. On to `Cc1cnn(CC2CN(Cc3ccccn3)CCO2)c1` (centres undefined), for which the cytotoxicity at 70.5 h is -5.81%. Regarding `Cc1nn(C)c(N(C)C)c1CNCc1ccccc1Cn1cccn1`, the cytotoxicity at 70.5 h is -2.08%. Turning to `CCN1CCC(NC(=O)CN2CCCCC2Cn2cncn2)CC1` (centres undefined), the cytotoxicity at 70.5 h worked out at 0.615%. Regarding `CCc1n[nH]c(C2CN(C(=O)c3cncnc3CC)CCO2)n1` (centres undefined), the cytotoxicity at 70.5 h was determined as 0.869%. For `Cc1cnn(CCNCc2ccc(OCc3ccncc3)cc2)c1`, the cytotoxicity at 70.5 h stood at 0.513%. As for `CCn1ncc2c1CCCC2NCc1ccccc1N1CCOCC1` (centres undefined), the cytotoxicity at 70.5 h amounted to 7.21%. Turning to `CC(C)(C)n1ncc2c1CCCC2NCc1cccc2c1OCCO2` (centres undefined), the cytotoxicity at 70.5 h is -7.2%. Take `Cc1cnn(CC2CCCN2C(=O)Cc2ccc(C)nc2)c1` (centres undefined): the cytotoxicity at 70.5 h was -7.79%. With `CCn1ncc2c1CCCC2NCc1cccc2c1OCCCO2` (centres undefined), the cytotoxicity at 70.5 h was -0.304%. The value for `Cc1cnn(CC2CCCN2C(=O)Cc2cccs2)c1` (centres undefined) was -8.39%; that for `Cc1nc(C2CCCN(C(=O)c3cc(Cl)c4c(c3)OCO4)C2)no1` (centres undefined) was -5.22%; that for `Cc1cnn(CC2CCCCN2CC(=O)Nc2nc(C)cs2)c1` (centres undefined) was -2.94%. The value for `CCOc1ncccc1CNC(=O)Nc1cc(C)nn1C` was -4.27%. On to `Cc1ccc(CNC(C)c2ccc(OCC(=O)NC3CC3)cc2)o1` (centres undefined), for which the cytotoxicity at 70.5 h was -1.22%. As for `CCN(Cc1nc2c(cnn2C)c(=O)[nH]1)c1cc(C)cc(C)c1`, the cytotoxicity at 70.5 h was found to be 9.75%. Take `CC(Cc1cccc(Cl)c1)NC(=O)Nc1cnn(CC(N)=O)c1` (centres undefined): the cytotoxicity at 70.5 h is -1.82%. The result for `COc1ccc(N(C)Cc2nc3c(cnn3C)c(=O)[nH]2)cc1OC` reads 0.734%. Consider `CC(C)NC(=O)C1CCN(c2snc3ccccc23)CC1`, for which the cytotoxicity at 70.5 h was -9.65%. Take `O=C(Nc1ccc(F)cc1)N1CCN(Cc2noc(C3CC3)n2)CC1`: the cytotoxicity at 70.5 h is 1.53%.

Take `Cc1cnn(CC2CCCCN2C(=O)Cc2c(C)nn(C)c2C)c1` (centres undefined): the cytotoxicity at 70.5 h was -3.41%. On to `Cc1cnn(CC2CCCN2CC(=O)NC2CCOCC2)c1` (centres undefined), for which the cytotoxicity at 70.5 h was 0.77%. Consider `Cc1cnn(CC2CCCCN2C(=O)c2csc(C)n2)c1` (centres undefined), for which the cytotoxicity at 70.5 h was -3.43%. Consider `Cc1cnn(CC2CCCCN2C(=O)Cc2ccc(C#N)cc2)c1` (centres undefined), for which the cytotoxicity at 70.5 h was -7.76%. Take `Cc1cnn(CC2CCCCN2C(=O)Cc2cccc(F)c2)c1` (centres undefined): the cytotoxicity at 70.5 h is -10.9%. `Cc1cnn(CC2CCCCN2C(=O)CC(F)(F)F)c1` (centres undefined): the cytotoxicity at 70.5 h is -3.76%.

For the compound `Cc1cccc(NC(=O)N2CCN(Cc3noc(C4CC4)n3)CC2)c1`, the cytotoxicity at 70.5 h worked out at 2.6%. With `Cc1nnc2n1CCN(CCOc1ccccc1C#N)C2`, the cytotoxicity at 70.5 h is 11.3%. `OC(CN1CCC(CNCc2ccccn2)CC1)c1ccccc1` (centres undefined): the cytotoxicity at 70.5 h came out at 1.35%.

For the compound `CCc1[nH]ncc1C(=O)N1CCOC(c2nc(C)n[nH]2)C1` (centres undefined), the cytotoxicity at 70.5 h is -2.8%. For `c1ccc(-n2ncc(CN3CCCC(Cn4cncn4)C3)n2)cc1` (centres undefined), the cytotoxicity at 70.5 h was determined as 0.701%. Turning to `CC(=O)N1CCN(C(=O)NCCc2ccc(Cl)s2)CC1`, the cytotoxicity at 70.5 h is -4.33%. In the case of `Cc1ccc(-c2nc(CN(Cc3cccs3)CC3CCCO3)no2)cc1` (centres undefined), the cytotoxicity at 70.5 h is -8.66%. As to `Cc1ccc(-c2nc(CC(=O)N3CCN(c4cnccn4)CC3)cs2)o1`, the cytotoxicity at 70.5 h is -4.05%. The result for `NC(=O)CC1CCN(C(=O)NCCc2ccc(Cl)s2)CC1` reads -4.12%; that for `O=C(NCC(F)(F)F)C1CSCN1S(=O)(=O)c1ccc(F)cc1Cl` (centres undefined), -10.4%; that for `O=C(NC1CCN(Cc2cccc3c2OCCO3)CC1)c1cccs1`, 0.406%.

`CCCN1CCC(CNC(=O)C2(c3cccc(C)c3)CC2)C1` (centres undefined): the cytotoxicity at 70.5 h came to 4.42%. On to `Cn1ccnc1CN1CCOC(Cn2cccn2)C1` (centres undefined), for which the cytotoxicity at 70.5 h was -1.69%. Regarding `c1ccc(-n2cc(CN3CCCC3Cn3cncn3)nn2)cc1` (centres undefined), the cytotoxicity at 70.5 h was -1.22%. Regarding `c1ccc(-n2cc(CN3CCCCC3Cn3cncn3)nn2)cc1` (centres undefined), the cytotoxicity at 70.5 h is -0.323%. Take `c1cnnc(N2CCCC2CNc2ncnc3sccc23)c1` (centres undefined): the cytotoxicity at 70.5 h was -7.82%.

`Cc1ccc(NC2CCN(C(=O)c3ccc(Cl)cc3F)CC2)nn1`: the cytotoxicity at 70.5 h is 23.4%. The value for `CNc1cc2c(nn1)CCN(C(=O)c1cc(C)n(C3CC3)c1C)C2` was 15.8%. Take `CCNc1cc2c(nn1)CCN(C(=O)c1cc(C)n(C3CC3)c1C)C2`: the cytotoxicity at 70.5 h was -0.806%. On to `CCOc1ccc(S(=O)(=O)NCc2cccnc2N(C)C)cc1`, for which the cytotoxicity at 70.5 h came out at 52.9%.

On to `COCCOc1ccc(NC(=O)N(C)Cc2ccsc2)cn1`, for which the cytotoxicity at 70.5 h was 3.32%.

Take `O=C(CN1CCC(c2ccnn2CCO)CC1)NCc1cccs1`: the cytotoxicity at 70.5 h came to 18.4%. `O=C(CN1CCC(c2ccnn2CCO)CC1)NCC1CC1`: the cytotoxicity at 70.5 h amounted to 10.7%. In the case of `CC(C)N(CC(N)=O)Cc1csc(Cc2ccccc2)n1`, the cytotoxicity at 70.5 h was determined as 24.4%. Regarding `CCC(CNC(=O)Nc1cnn(CC)c1)N1CCCC1` (centres undefined), the cytotoxicity at 70.5 h was -3.1%. As to `Cc1nn(C)c(N2CCOCC2)c1CNC1CCN(C(C)(C)C)CC1`, the cytotoxicity at 70.5 h stood at 1.66%. In the case of `Cc1csc(N2CCN(C(=O)CCn3cncn3)CC2)n1`, the cytotoxicity at 70.5 h was -7.97%. The value for `CCn1cc(CN2CCCN(C(=O)Cc3cccs3)CC2)cn1` was 28%. In the case of `O=C1CC(N(C(=O)c2ccc3c(c2)CCC3)C2CC2)C(=O)N1` (centres undefined), the cytotoxicity at 70.5 h turned out to be 33.4%. The result for `COc1cc(C(=O)N(C2CC2)C2CC(=O)NC2=O)ccc1C` (centres undefined) reads -0.747%; that for `Cc1cccc(-c2noc(CN3CCCC(Cn4cncn4)C3)n2)c1` (centres undefined), 35.6%.

Consider `Cc1nccn1C1CCCN(C(=O)c2cc3ccccc3[nH]2)C1` (centres undefined), for which the cytotoxicity at 70.5 h is 42.8%.

As for `Cc1nccn1C1CCCN(C(=O)c2cc(O)nc3ccccc23)C1` (centres undefined), the cytotoxicity at 70.5 h amounted to 12.3%. Consider `Cc1nn(C)c(N2CCOCC2)c1CNC1CCc2ccccc2C1` (centres undefined), for which the cytotoxicity at 70.5 h is 16.6%. For `Cn1cc(C2CCCN2Cc2csc(C(C)(C)C)n2)cn1` (centres undefined), the cytotoxicity at 70.5 h worked out at 25.7%. The result for `Cn1cc(C2CCCN2Cc2csc(-c3ccsc3)n2)cn1` (centres undefined) reads -0.271%; that for `CS(=O)(=O)NCCCN1CCCC1c1ccccc1` (centres undefined), 20%. Turning to `Cc1cnn(CC2CCCN2Cc2nnsc2Cl)c1` (centres undefined), the cytotoxicity at 70.5 h stood at 31.9%. On to `O=C(c1ccc2c(c1)COC2)N1CCN(CC2CC2)CC1`, for which the cytotoxicity at 70.5 h is -7.78%.

`CCCc1cc(C(=O)N2CCCC(n3ccnc3C)C2)[nH]n1` (centres undefined): the cytotoxicity at 70.5 h came out at 32.7%. On to `c1ncn(CC2CCCN(Cc3nc(C4CC4)no3)C2)n1` (centres undefined), for which the cytotoxicity at 70.5 h came to 31.5%. Turning to `COc1ccsc1C(=O)N1CCCC(n2nc(C)nc2C)C1` (centres undefined), the cytotoxicity at 70.5 h is 3.22%.

`CCCc1n[nH]c(C2CN(Cc3nnc(C4CC4)o3)CCO2)n1` (centres undefined): the cytotoxicity at 70.5 h stood at 8.7%. Consider `COc1ccc(CCN2CCCC2Cn2nc(C)nc2C)cc1` (centres undefined), for which the cytotoxicity at 70.5 h is 17.7%.
